Data as given in PubChem BioAssay AID1259407 (Chemical Carcinogenesis Research Information System (CCRIS), 2018).
Activity calls are given as the source filed them. No rule for the calls is given here.

Test system: CCRIS mutagenicity, Ames/micronucleus/aberration tests
Experiment: CCRIS mutagenicity studies
Conditions: Test System: AMES SALMONELLA TYPHIMURIUM
[1] = Strain/Indicator: TA98, Metabolic Activation: NONE, Method: PREINCUBATION
[2] = Strain/Indicator: TA100, Metabolic Activation: NONE, Method: PREINCUBATION
[3] = Strain/Indicator: TA98, Metabolic Activation: NONE, Method: STANDARD PLATE
[4] = Strain/Indicator: TA98, Metabolic Activation: RAT, LIVER, S-9, AROCLOR 1254, Method: STANDARD PLATE

SMILES | mutagenic call (Strain/Indicator: TA97A, Metabolic Activation: NONE, Method: PREINCUBATION) | mutagenic call [1] | mutagenic call [2] | mutagenic call (Strain/Indicator: TA102, Metabolic Activation: NONE, Method: PREINCUBATION) | mutagenic call [3] | mutagenic call (Strain/Indicator: TA98, Metabolic Activation: RAT, LIVER, S-9, AROCLOR 1254 (10%), Method: PREINCUBATION) | mutagenic call [4] | mutagenic call (Strain/Indicator: TA100, Metabolic Activation: RAT, LIVER, S-9, AROCLOR 1254 (10%), Method: PREINCUBATION) | mutagenic call (Strain/Indicator: TA100, Metabolic Activation: NONE, Method: STANDARD PLATE) | mutagenic call (Strain/Indicator: TA100, Metabolic Activation: RAT, LIVER, S-9, AROCLOR 1254, Method: STANDARD PLATE)
Cc1ccc2cc3ccc4ccccc4c3nc2c1 | inactive; negative | inactive; negative | active; positive | inactive; negative |  |  |  |  |  | 
O=[N+]([O-])c1ccc2cc3ccccc3cc2c1 |  | active; positive | active; positive |  | active; positive | active; positive | active; positive | active; positive |  | 
CC(C)NCC(O)COc1cccc2[nH]c3ccccc3c12 (stereo not given) |  |  |  |  | inactive; negative |  | inactive; negative |  | inactive; negative | inactive; negative
O[C@@H]1C=Cc2c(cc3ccc4cccc5ccc2c3c45)[C@@H]1O |  |  |  |  |  |  | active; positive |  |  | 
